Data from patent US20260062388A1, “POLYMORPHIC FORM OF NEPICASTAT ACID ADDITION SALT, PREPARATION METHOD THEREFOR AND USE THEREOF” (Jiangsu Yahong Meditech Co., Ltd., priority 2022, published 2026).
In brackets after ≈: the same amount, converted by molar mass. Values belong to the compound of their own block, whether it stands above or below them.

What was measured:
Format in all cases: physicochemical
[1] = Stability tests on crystal forms of acid addition salts: high-temperature test and accelerated test, 4 weeks; settings: for stability under accelerated conditions: 40° C.±2° C./75% RH±5% RH; for stability under high temperature conditions: 60±2° C.
[2] = Competitive experiments of crystal forms I and II by adding crystal seeds (different water activities); settings: room temperature, 3 days
Protocol: To confirm stability of the crystal forms at room temperature, the following competitive experiments were conducted for the crystal forms I and II:
The suspensions were stirred for 24 hours at room temperature, and all systems had solid residues. All systems were centrifuged and the supernatants were taken. […] The resulting suspensions were sonicated for 1 minute, stirred for 3 days at room temperature, and sampled to detect the crystal form.

[3] = Dynamic vapor sorption (DVS) hygroscopicity
Protocol: DVS curves are acquired on DVS Intrinsic from SMS (Surface Measurement Systems). • Testing temperature: 25° C. • Sample amount: 10-20 mg • dm/dt: 0.002%/min; • RH range: 0% RH-95% RH-0% RH • RH gradient: 10%

[4] = Stability studies under relatively harsh conditions (40° C., 40° C./75% RH, 60° C., 60° C./75% RH) on crystal forms I and II
[5] = Approximate solubility test of the free base of nepicastat; settings: for solubility: thermodynamic from solid, approximate solubility
Protocol: In order to select a suitable method for salt form screening, an approximate solubility test was conducted on the compound. The test method was as follows: about 4 mg of the free base of nepicastat was weighed, an appropriate volume of a solvent was added gradually thereto and shaken to observe whether the free base was dissolved, and the volumes of the solvent were recorded, including the volume that enabled complete dissolution and the previous volume of the solvent that was not able to completely dissolve the free base. For poor solubility, the total amount of the solvent added was no more than 4 mL. The approximate solubility thereof was calculated.

[6] = Approximate solubility test on crystal forms of hydrochloride salt of nepicastat at room temperature; settings: purified water
[7] = Approximate solubility tests on crystal forms of acid addition salts of nepicastat in water (room temperature)

stability under accelerated conditions [1]: stable | stability under high temperature conditions [1]: the impurities increased
Compound: NCc1c[nH]c(=S)n1C1CCc2c(F)cc(F)cc2C1.O=C(O)CC(O)(CC(=O)O)C(=O)O (stereo not shown) [crystal form I of citrate salt, citrate salt of nepicastat]

Compound: NCc1c[nH]c(=S)n1[C@H]1CCc2c(F)cc(F)cc2C1.O=C(O)/C=C/C(=O)O [crystal form I of fumarate salt, fumarate salt of nepicastat]
stability under accelerated conditions [1]: stable | stability under high temperature conditions [1]: the impurities increased

Compound: CS(=O)(=O)O.NCc1c[nH]c(=S)n1[C@H]1CCc2c(F)cc(F)cc2C1 [crystal form I of methanesulfonate salt, methanesulfonate salt of nepicastat]
stability under accelerated conditions [1]: stable | stability under high temperature conditions [1]: stable

Compound: NCc1c[nH]c(=S)n1[C@H]1CCc2c(F)cc(F)cc2C1.O=P(O)(O)O [crystal form I of phosphate salt, phosphate salt of nepicastat]
stability under accelerated conditions [1]: stable | stability under high temperature conditions [1]: the impurities slightly increased

Compound: Cl.NCc1c[nH]c(=S)n1[C@H]1CCc2c(F)cc(F)cc2C1 [crystal form II of hydrochloride salt, hydrochloride salt of nepicastat]
stability in competitive experiment ([2]; ethanol-water mixed solutions with lower water activity (0.291-0.750)): could exist stably | stability in competitive experiment ([2]; purified water): not as good as that of the crystal form I | hygroscopicity of the sample ([3]; DVS, 0% RH to 80% RH): slight hygroscopicity | weight gain by hygroscopicity ([3]; DVS, from 0% RH to 80% RH, 25° C.): about 0.453% | crystal form before and after the DVS test ([3]; XRPD before and after DVS): remained unchanged | crystal form stability (XRPD pattern) ([4]; 40° C.): converted into the crystal form III | crystal form stability (XRPD pattern) ([4]; 40° C./75% RH, 15 days): the crystal form did not change | crystal form stability (XRPD pattern) ([4]; 60° C., 15 days): converted into the crystal form III | crystal form stability (XRPD pattern) ([4]; 60° C./75% RH, 15 days): the crystal form did not change

Compound: NCc1c[nH]c(=S)n1[C@H]1CCc2c(F)cc(F)cc2C1.NCc1c[nH]c(=S)n1[C@H]1CCc2c(F)cc(F)cc2C1.O=S(=O)(O)O [crystal form II of sulfate salt (1:0.5), sulfate salt of nepicastat]
stability under accelerated conditions [1]: stable | stability under high temperature conditions [1]: the impurities increased

Compound: NCc1c[nH]c(=S)n1[C@H]1CCc2c(F)cc(F)cc2C1.O=S(=O)(O)O [crystal form III of sulfate salt (1:1), bisulfate salt of nepicastat]
stability under accelerated conditions [1]: stable | stability under high temperature conditions [1]: the impurities increased

Compound: NCc1c[nH]c(=S)n1[C@H]1CCc2c(F)cc(F)cc2C1 [free base of nepicastat, Nepicastat]
approximate solubility (qualitative) ([5]; in dichloromethane:methanol (1:1, V:V), methanol, acetone and ethanol): higher solubility | solubility ([5]; organic solvent or mixture, solvent 2-Methyltetrahydrofuran): < 1000 µg/mL | solubility ([5]; organic solvent or mixture, solvent Acetone): 4000 to 5000 µg/mL (≈ 13.5 to 16.9 mM) | solubility ([5]; organic solvent or mixture, solvent Dichloromethane): < 1000 µg/mL | solubility ([5]; organic solvent or mixture, solvent Dichloromethane:methanol (1:1)): 19700 to 39300 µg/mL (≈ 66.7 to 133 mM) | solubility ([5]; organic solvent or mixture, solvent Ethanol): 2900 to 3400 µg/mL (≈ 9.82 to 11.5 mM) | solubility ([5]; organic solvent or mixture, solvent Ethyl acetate): < 1000 µg/mL | solubility ([5]; organic solvent or mixture, solvent Methanol): 6900 to 10300 µg/mL (≈ 23.4 to 34.9 mM) | solubility ([5]; organic solvent or mixture, solvent Methyl tert-butyl ether): < 1000 µg/mL | solubility ([5]; organic solvent or mixture, solvent N-heptane): < 1000 µg/mL | solubility ([5]; solvent Purified water): < 1000 µg/mL

Compound: Cl.NCc1c[nH]c(=S)n1[C@H]1CCc2c(F)cc(F)cc2C1 [hydrochloride salt of nepicastat]
solubility in purified water [6]: 7400 µg/mL

Compound: maleate salt of nepicastat [crystal form I of maleate salt]
stability under accelerated conditions [1]: stable | stability under high temperature conditions [1]: stable | Approximate solubility ([7]; in purified water, at room temperature, calculated by the salt): 1.8~3.6 mg/mL | solubility in purified water compared with other candidate salt forms ([7]; purified water, room temperature): slightly higher than that of other candidate salt forms
